Data: patent US20120196854A1, “PHARMACEUTICAL COMPOSITION COMPRISING AROMATIC HETEROCYCLIC COMPOUND” (Kyowa Hakko Kirin Co., Ltd., priority 2009, published 2012)

What was measured:
cyclooxygenase-1 (COX-1) = cyclooxygenase-1 (COX-1) (Homo sapiens, UniProt P23219); test: Inhibition of COX-1 enzyme activity; format: biochemical; conditions: at a concentration of 10 μmol/L; read-out: inhibitory rate, COX-1
cyclooxygenase-2 (COX-2) = target: T1, cyclooxygenase-2 (COX-2) (Homo sapiens, UniProt P35354); test: Inhibition of COX-2 enzyme activity; format: biochemical; conditions: at a concentration of 10 μmol/L; read-out: inhibitory rate, COX-2
T1 sequence (P35354 18-604): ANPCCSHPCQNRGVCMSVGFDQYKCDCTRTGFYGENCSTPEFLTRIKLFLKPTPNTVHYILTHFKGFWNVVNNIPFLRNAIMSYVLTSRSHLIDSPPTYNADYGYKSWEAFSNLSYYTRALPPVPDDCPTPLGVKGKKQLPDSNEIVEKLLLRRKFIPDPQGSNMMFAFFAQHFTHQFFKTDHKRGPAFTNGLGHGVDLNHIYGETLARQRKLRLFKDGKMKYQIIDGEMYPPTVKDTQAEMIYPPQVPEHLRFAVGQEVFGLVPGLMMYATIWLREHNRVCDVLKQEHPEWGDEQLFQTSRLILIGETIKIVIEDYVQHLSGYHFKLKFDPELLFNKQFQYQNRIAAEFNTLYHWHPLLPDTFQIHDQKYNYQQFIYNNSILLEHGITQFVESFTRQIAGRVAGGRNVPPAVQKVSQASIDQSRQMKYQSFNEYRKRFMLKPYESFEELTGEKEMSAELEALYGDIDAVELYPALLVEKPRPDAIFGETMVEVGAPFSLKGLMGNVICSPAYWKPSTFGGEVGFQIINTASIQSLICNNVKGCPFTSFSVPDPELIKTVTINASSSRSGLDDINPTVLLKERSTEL

[1] = test system: antigen-induced nasal congestion in rats; test: Effect on antigen-induced nasal congestion in rats; format: in vivo, rat; conditions: 10 mg/kg orally, 1 hour before nasal antigen; OVA-sensitized BN rats
Description: Six-week-old male BN/CrljCrlj SPF/VAF rats were purchased from Charles River Japan (Hino, Kanagawa) and used for experiments. Equal amounts of a 0.4 mg/mL ovalbumin/saline solution (OVA: Grade III, Cat. No. A-5378, Sigma-Aldrich, St. Louis, Mo., USA) and a 20 mg/mL suspension of aluminum hydroxide (alum: Cat. No. 014-01925, Wako Pure Chemical Industries) in saline were mixed to give a sensitizing fluid. First, a suspension of inactivated killed pertussis bacteria (Cat. No. 15330-91, Nacalai Tesque, Tokyo) was doubly diluted with saline. The diluted suspension was subcutaneously administered on the back of each rat at a dose of 0.1 mL (containing 10 billion bacterial cells) per rat, and immediately after that, the sensitizing fluid was intraperitoneally administered at a dose of 1 mL per rat. […]
The nasal congestion was evaluated based on the elevation of the intranasal pressure determined in the following manner. […] The pressure inside the nasal cavity was detected using a pressure transducer branched from the end of the cannula for measurement, and analyzed using Win-PULMOS-III (M.I.P.S. Inc., Osaka). The pressure inside the nasal cavity was measured for 3 minutes immediately after the connection to the cannula for measurement and the artificial ventilator, and the data was calculated for a 3-minute average.

Chain of cyclooxygenase-1 (COX-1) (P23219 24-599, species assumed): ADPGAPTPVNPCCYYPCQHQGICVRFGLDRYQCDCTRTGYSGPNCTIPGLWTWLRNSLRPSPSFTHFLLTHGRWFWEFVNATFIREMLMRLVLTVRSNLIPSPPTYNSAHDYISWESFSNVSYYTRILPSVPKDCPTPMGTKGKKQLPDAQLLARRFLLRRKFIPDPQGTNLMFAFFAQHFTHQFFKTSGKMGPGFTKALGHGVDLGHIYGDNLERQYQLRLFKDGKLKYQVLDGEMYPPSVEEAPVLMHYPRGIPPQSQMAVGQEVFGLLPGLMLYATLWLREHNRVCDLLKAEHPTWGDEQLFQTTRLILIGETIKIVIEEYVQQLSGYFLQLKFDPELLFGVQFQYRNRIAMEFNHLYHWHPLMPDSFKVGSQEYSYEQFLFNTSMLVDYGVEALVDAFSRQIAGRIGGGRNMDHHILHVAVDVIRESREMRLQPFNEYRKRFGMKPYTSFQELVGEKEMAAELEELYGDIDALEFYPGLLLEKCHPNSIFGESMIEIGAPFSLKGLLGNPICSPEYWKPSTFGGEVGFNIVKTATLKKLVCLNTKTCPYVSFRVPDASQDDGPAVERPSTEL

With `O=C(O)c1cc(-c2ccco2)nc2ccc3nn(-c4ccccc4)nc3c12` [Compound 133, 7-(furan-2-yl)-2-phenyl-2H-[1,2,3]triazolo[4,5-f]quinoline-9-carboxylic acid] the inhibition at 10 µM (cyclooxygenase-1 (COX-1)) was ≤ 20%, the inhibition at 10 µM (cyclooxygenase-2 (COX-2)) was ≤ 20% and the “inhibition of antigen-induced nasal congestion (intranasal pressure)” value [1] was 55%.
